Experimental data taken from the NIST ThermoML archive (doi:10.1016/j.jct.2013.01.012).
± gives the expanded uncertainty stated by the source.

Key:
[1] = mn = molality of the nth substance listed, in mol/kg; conditions: 101 kPa, Liquid; for speed of sound: Sing-around technique in a fixed-path interferometer; for mass density: Vibrating tube method
[2] = refractive index (Na D-line) (dimensionless); mn = molality of the nth substance listed, in mol/kg; conditions: 101 kPa, Liquid, Standard Abbe refractometry

O=P([O-])([O-])[O-].[Na+].[Na+].[Na+] [trisodium phosphate] + O
Conditions	mass density, 298.15 K [kg/m3]	mass density, 303.15 K [kg/m3]	mass density, 308.15 K [kg/m3]	refractive index, 298.15 K	refractive index, 303.15 K	refractive index, 308.15 K	speed of sound, 298.15 K [m/s]	speed of sound, 303.15 K [m/s]	speed of sound, 308.15 K [m/s]
[1], m1 = 0.1	1015.18 ± 0.2	1013.87 ± 0.2	1012.26 ± 0.2	–	–	–	1519.7 ± 0.98	1531.5 ± 0.99	1541.8 ± 1
[1], m1 = 0.3	1052.41 ± 0.21	1051.09 ± 0.21	1049.48 ± 0.21	–	–	–	1563.1 ± 1	1573.9 ± 1	1583.5 ± 1
[1], m1 = 0.5	1091.06 ± 0.22	1090.82 ± 0.22	1089.21 ± 0.23	–	–	–	1608.9 ± 1.1	1619.9 ± 1.1	1628.3 ± 1.1
[1], m1 = 0.7	1130.08 ± 0.24	1129.51 ± 0.24	1131.08 ± 0.24	–	–	–	1658.1 ± 1.1	1667.3 ± 1.1	1677.7 ± 1.1
[1], m1 = 0.9	1173.67 ± 0.27	1169.99 ± 0.26	1167.45 ± 0.24	–	–	–	1716.9 ± 1.1	1722.6 ± 1.1	1727.6 ± 1.1
[2], m1 = 0.1	–	–	–	1.3365 ± 0.0004	1.3358 ± 0.0004	1.3353 ± 0.0004	–	–	–
[2], m1 = 0.3	–	–	–	1.3439 ± 0.0004	1.3431 ± 0.0004	1.3425 ± 0.0004	–	–	–
[2], m1 = 0.5	–	–	–	1.3515 ± 0.0004	1.3506 ± 0.0004	1.35 ± 0.0004	–	–	–
[2], m1 = 0.7	–	–	–	1.3588 ± 0.0004	1.3581 ± 0.0004	1.3574 ± 0.0004	–	–	–
[2], m1 = 0.9	–	–	–	1.3664 ± 0.0004	1.3671 ± 0.0004	1.3653 ± 0.0004	–	–	–

O=P([O-])(O)O.[Na+] [sodium dihydrogen phosphate] + O
Conditions	mass density, 298.15 K [kg/m3]	mass density, 303.15 K [kg/m3]	mass density, 308.15 K [kg/m3]	refractive index, 298.15 K	refractive index, 303.15 K	refractive index, 308.15 K	speed of sound, 298.15 K [m/s]	speed of sound, 303.15 K [m/s]	speed of sound, 308.15 K [m/s]
[1], m1 = 0.1	1006.23 ± 0.1	1005.17 ± 0.1	1004.2 ± 0.1	–	–	–	1507.1 ± 0.98	1519.2 ± 0.98	1529.8 ± 0.99
[1], m1 = 0.3	1024.26 ± 0.11	1022.91 ± 0.11	1021.13 ± 0.11	–	–	–	1527.2 ± 0.99	1538.5 ± 1	1548.1 ± 1
[1], m1 = 0.5	1043.03 ± 0.12	1041.67 ± 0.12	1039.97 ± 0.12	–	–	–	1547.3 ± 1	1558.2 ± 1	1567.3 ± 1
[1], m1 = 0.7	1062.08 ± 0.13	1060.86 ± 0.13	1060.09 ± 0.14	–	–	–	1567.7 ± 1	1577.8 ± 1	1587.9 ± 1
[1], m1 = 0.9	1081.28 ± 0.14	1079.48 ± 0.14	1080.28 ± 0.14	–	–	–	1587.8 ± 1	1579.2 ± 20	1608.1 ± 1.1
[2], m1 = 0.1	–	–	–	1.3346 ± 0.0004	1.334 ± 0.0004	1.3335 ± 0.0004	–	–	–
[2], m1 = 0.3	–	–	–	1.3381 ± 0.0004	1.3376 ± 0.0004	1.3371 ± 0.0004	–	–	–
[2], m1 = 0.5	–	–	–	1.3408 ± 0.0004	1.3412 ± 0.001	1.3398 ± 0.0004	–	–	–
[2], m1 = 0.7	–	–	–	1.344 ± 0.0004	1.3435 ± 0.0004	1.3428 ± 0.0004	–	–	–
[2], m1 = 0.9	–	–	–	1.3492 ± 0.002	1.3473 ± 0.0004	1.3466 ± 0.0004	–	–	–

O=P([O-])(O)O.[K+] [monopotassium phosphate] + O
Conditions	mass density, [1] [kg/m3]	refractive index, [2]	speed of sound, [1] [m/s]
298.15 K, m1 = 0.1	1007.01 ± 0.11	1.3343 ± 0.0004	1506.5 ± 0.99
298.15 K, m1 = 0.3	1026.44 ± 0.13	1.3374 ± 0.0004	1524.5 ± 1
298.15 K, m1 = 0.5	1046.68 ± 0.15	1.3401 ± 0.0004	1542.1 ± 1.1
298.15 K, m1 = 0.7	1066.58 ± 0.19	1.3435 ± 0.0004	–
298.15 K, m1 = 0.9	1088.28 ± 0.23	1.3466 ± 0.0004	1577.6 ± 1.2
303.15 K, m1 = 0.1	1005.58 ± 0.11	1.3336 ± 0.0004	1518.4 ± 0.99
303.15 K, m1 = 0.3	1025.15 ± 0.13	1.3368 ± 0.0004	1536 ± 1
303.15 K, m1 = 0.5	1045.29 ± 0.15	1.3397 ± 0.0004	1553.2 ± 1.1
303.15 K, m1 = 0.7	1065.65 ± 0.19	1.3427 ± 0.0004	1570.1 ± 1.1
303.15 K, m1 = 0.9	1087.42 ± 0.23	1.3463 ± 0.0004	1587.9 ± 1.2
308.15 K, m1 = 0.1	1004.16 ± 0.11	1.333 ± 0.0004	1528.8 ± 1
308.15 K, m1 = 0.3	1023.58 ± 0.13	1.3361 ± 0.0004	1545.8 ± 1
308.15 K, m1 = 0.5	1044.55 ± 0.16	1.3392 ± 0.0004	1563.1 ± 1.1
308.15 K, m1 = 0.7	1065.08 ± 0.19	1.3423 ± 0.0004	1580 ± 1.1
308.15 K, m1 = 0.9	1086.5 ± 0.22	1.3455 ± 0.0004	1596.6 ± 1.2

O=P(O)(O)O [phosphoric acid] + O
Conditions	mass density, 298.15 K [kg/m3]	mass density, 303.15 K [kg/m3]	mass density, 308.15 K [kg/m3]	refractive index, 298.15 K	refractive index, 303.15 K	refractive index, 308.15 K	speed of sound, 298.15 K [m/s]	speed of sound, 303.15 K [m/s]	speed of sound, 308.15 K [m/s]
[1], m1 = 0.1	1002.05 ± 0.069	1000.62 ± 0.069	998.962 ± 0.069	–	–	–	1497.1 ± 0.97	1509.2 ± 0.98	1519.7 ± 0.98
[1], m1 = 0.3	1011.37 ± 0.073	1009.93 ± 0.073	1008.27 ± 0.072	–	–	–	1498.3 ± 0.97	1510.2 ± 0.98	1520.4 ± 0.98
[1], m1 = 0.5	1021.09 ± 0.077	1019.94 ± 0.077	1018.07 ± 0.077	–	–	–	1500 ± 0.97	1511.6 ± 0.98	1521.6 ± 0.98
[1], m1 = 0.7	1030.49 ± 0.081	1029.49 ± 0.08	1028.12 ± 0.081	–	–	–	1502 ± 0.97	1513.2 ± 0.98	1523 ± 0.98
[1], m1 = 0.9	1040.62 ± 0.086	1039.05 ± 0.084	1037.8 ± 0.084	–	–	–	1504.2 ± 0.97	1515.1 ± 0.98	1524.6 ± 0.98
[2], m1 = 0.1	–	–	–	1.3334 ± 0.0004	1.3329 ± 0.0004	1.3323 ± 0.0004	–	–	–
[2], m1 = 0.3	–	–	–	1.335 ± 0.0004	1.3345 ± 0.0004	1.3339 ± 0.0004	–	–	–
[2], m1 = 0.5	–	–	–	1.3366 ± 0.0004	1.336 ± 0.0004	1.3356 ± 0.0004	–	–	–
[2], m1 = 0.7	–	–	–	1.3381 ± 0.0004	1.3376 ± 0.0004	1.3371 ± 0.0004	–	–	–
[2], m1 = 0.9	–	–	–	1.3397 ± 0.0004	1.3393 ± 0.0004	1.3388 ± 0.0004	–	–	–
